In PubChem BioAssay AID1963982 (Molecular Pharmacology Branch, DTP, NCI, 2024):

Tested on: 313798-341-R-J2-PDC spheroids, viability
Experiment: Anticancer human tumor 313798-341-R-J2-PDC patient-derived cervical squamous cell carcinoma cell line growth inhibition [PI3K]
Conditions: spheroids with HUVEC and MSC; for IC50: curve of first compound; for viability, T/C: stronger effect = lower value
Description: Combinatorial screen of targeted agents with the PI3K inhibitors inavolisib, alpelisib, duvelisib, and copanlisib in multi-cell type tumor spheroids
A high-throughput screen of multi-cell type tumor spheroids was designed to identify active combinations of targeted small molecules and PI3K pathway inhibitors. Complex spheroids include a stromal component modeled by human endothelial cells (HUVEC) and fibroblasts modeled by human mesenchymal stem cells (MSCs). The concentration ranges selected for each drug and investigational agent were based upon clinically achievable concentrations if the clinical Cmax of the agent was known.
Compounds. The drugs and investigational agents: inavolisib (NSC800729), alpelisib (NSC765974), duvelisib (NSC772469), copanlisib (NSC816437), ipatasertib (NSC767898), afuresertib (NSC778305), talazoparib (NSC767125), sapanisertib (NSC764658), selumetinib (NSC741078), tovorafenib (DAY101, NSC766906), vemurafenib (NSC761431), ravoxertinib (NSC781343), sotorasib (NSC818433), MRTX1133 (NSC 836407), abemaciclib (NSC 768073), palbociclib (NSC758247), venetoclax (NSC 766270), SY5609 (NSC837396), enzalutamide (NSC755605), and darolutamide (NSC825331), were obtained from the National Cancer Institute (NCI) Developmental Therapeutics Program Chemical Repository. The FDA-approved anticancer drug set is available from the NCI Developmental Therapeutics Program. […] The stock solutions were prepared in dimethyl sulfoxide (DMSO, Sigma-Aldrich, St. Louis, MO, cat. D2650) at 800-fold the tested concentration and stored at -70 degrees C prior to their use. All drugs and investigational agents were tested over a range starting from a high concentration at or near the clinical Cmax and decreasing in half-log increments. If the clinical Cmax for an agent had not been determined, the highest concentration tested was 10 microM.
Cell Culture. All cells were maintained in an incubator at 37 degrees C and 5% CO2 with 95% humidity. The PDC lines were cultured according to standard operating procedures established by the NCI PDMR (https://pdmr.cancer.gov/sops/default.htm). All PDCs were thawed and cultured in Matrigel-coated flasks prepared with a working solution of 1X Ham's F-12 nutrient mix, without supplementation (Invitrogen, Waltham, MA, cat. 11765054), 100 U/mL penicillin-streptomycin (Invitrogen, cat. 15140122), and 2.5% Matrigel (Corning Inc., Corning, NY, cat. 354248) for the first three passages. The 354836-022-R-J1-PDC, 475296-252-R-J1-PDC, and 997726-040-R-J2-PDC lines were cultured in 6A media, which includes advanced DMEM/F-12 (Thermo Fisher Scientific, cat. 12634028), 10 mM HEPES (Thermo Fisher Scientific, cat. 15630080), 1X GlutaMAX supplement (Thermo Fisher Scientific, cat. 35050061), 0.1 mg/mL primocin (InvivoGen, San Diego, CA, cat. ant-pm-2), 10% defined fetal bovine serum, heat inactivated (HyClone Laboratories Inc., Logan, UT, cat. SH30070.03HI), 50% L-WRN conditioned media (ATCC, cat. CRL-3276), 1.25 mM N-Acetyl-L-cysteine (Sigma-Aldrich, cat. A9165), 10 mM nicotinamide (Sigma-Aldrich, cat. N0636), 1X B-27 supplement (Thermo Fisher Scientific, cat. 17504044), 1X N-2 supplement (Thermo Fisher Scientific, cat. 17502048), and 10 microM Y-27632 dihydrochloride (Tocris Bioscience, Bristol, United Kingdom, cat. 1254). The 624824-186-R-J2-PDC line was cultured in 6C/Colon 1B media, which includes all 6A media components plus 50 ng/mL human EGF recombinant protein (Thermo Fisher Scientific, cat. PHG0311). […]

[1] = second compound 0.0316 µM, first compound 0.0316 µM
[2] = second compound 0.0316 µM, first compound 0.1 µM
[3] = second compound 0.0316 µM, first compound 0.316 µM
[4] = second compound 0.0316 µM, first compound 1 µM
[5] = second compound 0.0316 µM, first compound 3.16 µM
[6] = second compound 0.0316 µM, first compound 10 µM
[7] = second compound 0.1 µM, first compound 0.0316 µM
[8] = second compound 0.1 µM, first compound 0.1 µM
[9] = second compound 0.1 µM, first compound 0.316 µM
[10] = second compound 0.1 µM, first compound 1 µM
[11] = second compound 0.1 µM, first compound 3.16 µM
[12] = second compound 0.1 µM, first compound 10 µM
[13] = second compound 0.316 µM, first compound 0.0316 µM
[14] = second compound 0.316 µM, first compound 0.1 µM
[15] = second compound 0.316 µM, first compound 0.316 µM
[16] = second compound 0.316 µM, first compound 1 µM
[17] = second compound 0.316 µM, first compound 3.16 µM
[18] = second compound 0.316 µM, first compound 10 µM
[19] = second compound 1 µM, first compound 0.0316 µM
[20] = second compound 1 µM, first compound 0.1 µM
[21] = second compound 1 µM, first compound 0.316 µM
[22] = second compound 1 µM, first compound 1 µM
[23] = second compound 1 µM, first compound 3.16 µM
[24] = second compound 1 µM, first compound 10 µM
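Note: spheroids exposed to compounds for seven days.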
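Throughout, for viability, T/C: 100% = DMSO vehicle control viability.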

For `Cn1nccc1Nc1nccc(-c2ccn(C(CO)c3ccc(Cl)c(F)c3)c(=O)c2)n1` (centres undefined) + CC(Nc1ccc2c(c1)OCCn1cc(N3C(=O)OCC3C(F)F)nc1-2)C(N)=O, the IC50 (second compound 0.00316 µM) was > 10000 nM, the IC50 (second compound 0.01 µM) was > 10000 nM and the IC50 (second compound 0.0316 µM) was > 10000 nM. The IC50 (second compound 0.1 µM) was > 10000 nM, the IC50 (second compound 0.316 µM) was > 10000 nM and the IC50 (second compound 1 µM) was 219 nM. The viability, T/C (second compound 0.00316 µM, first compound 0.0316 µM) was 98.2%, the viability, T/C (second compound 0.00316 µM, first compound 0.1 µM) was 96% and the viability, T/C (second compound 0.00316 µM, first compound 0.316 µM) was 90.5%. For the same compound, the viability, T/C (second compound 0.00316 µM, first compound 1 µM) was 97.2%, the viability, T/C (second compound 0.00316 µM, first compound 3.16 µM) was 103% and the viability, T/C (second compound 0.00316 µM, first compound 10 µM) was 100%. It also gave a viability, T/C (second compound 0.01 µM, first compound 0.0316 µM) of 98.7%, a viability, T/C (second compound 0.01 µM, first compound 0.1 µM) of 97.9% and a viability, T/C (second compound 0.01 µM, first compound 0.316 µM) of 87.9%. The viability, T/C (second compound 0.01 µM, first compound 1 µM) was 111%, the viability, T/C (second compound 0.01 µM, first compound 3.16 µM) was 121% and the viability, T/C (second compound 0.01 µM, first compound 10 µM) was 102%. The viability, T/C [1] was 109%, the viability, T/C [2] was 98.6% and the viability, T/C [3] was 102%. The viability, T/C [4] was 112%, the viability, T/C [5] was 115% and the viability, T/C [6] was 99.5%. The viability, T/C [7] was 98%, the viability, T/C [8] was 95% and the viability, T/C [9] was 93.6%. For the same compound, the viability, T/C [10] was 94.8%, the viability, T/C [11] was 89.4% and the viability, T/C [12] was 80.2%. It also gave a viability, T/C [13] of 77%, a viability, T/C [14] of 66.4% and a viability, T/C [15] of 65.7%. The viability, T/C [16] was 58.5%, the viability, T/C [17] was 66.8% and the viability, T/C [18] was 51.6%. The viability, T/C [19] was 59%, the viability, T/C [20] was 46.1% and the viability, T/C [21] was 46.8%. For the same compound, the viability, T/C [22] was 46.5%, the viability, T/C [23] was 52.7% and the viability, T/C [24] was 34.9%.

Compound `Cn1ncc(Cl)c1-c1cc(C(=O)NC(CN)Cc2cccc(F)c2)sc1Cl` (centres undefined) + Cc1nc(NC(=O)N2CCCC2C(N)=O)sc1-c1ccnc(C(C)(C)C(F)(F)F)c1 has an IC50 (second compound 0.0316 µM) of 927 nM, an IC50 (second compound 0.1 µM) of 831 nM and an IC50 (second compound 0.316 µM) of 868 nM. The IC50 (second compound 1 µM) was 572 nM, the IC50 (second compound 3.16 µM) was 238 nM and the IC50 (second compound 10 µM) was < 31.6 nM. The viability, T/C [1] was 109%, the viability, T/C [2] was 93.2% and the viability, T/C [3] was 70.3%. It also gave a viability, T/C [4] of 49.7%, a viability, T/C [5] of 34.5% and a viability, T/C [6] of 33.3%. For the same compound, the viability, T/C [7] was 108%, the viability, T/C [8] was 89% and the viability, T/C [9] was 72.1%. The viability, T/C [10] was 44.5%, the viability, T/C [11] was 33.6% and the viability, T/C [12] was 34.8%. It also gave a viability, T/C [13] of 102%, a viability, T/C [14] of 99.7% and a viability, T/C [15] of 72.2%. It also gave a viability, T/C [16] of 48.5%, a viability, T/C [17] of 34.5% and a viability, T/C [18] of 33.1%. It also gave a viability, T/C [19] of 76.5%, a viability, T/C [20] of 73.9% and a viability, T/C [21] of 56.5%. It also gave a viability, T/C [22] of 43.9%, a viability, T/C [23] of 34.3% and a viability, T/C [24] of 33.7%. For the same compound, the viability, T/C (second compound 3.16 µM, first compound 0.0316 µM) was 59.5%, the viability, T/C (second compound 3.16 µM, first compound 0.1 µM) was 57.5% and the viability, T/C (second compound 3.16 µM, first compound 0.316 µM) was 46%. The viability, T/C (second compound 3.16 µM, first compound 1 µM) was 40.7%, the viability, T/C (second compound 3.16 µM, first compound 3.16 µM) was 30.4% and the viability, T/C (second compound 3.16 µM, first compound 10 µM) was 28.4%. For the same compound, the viability, T/C (second compound 10 µM, first compound 0.0316 µM) was 38.2%, the viability, T/C (second compound 10 µM, first compound 0.1 µM) was 32.6% and the viability, T/C (second compound 10 µM, first compound 0.316 µM) was 31.9%. The viability, T/C (second compound 10 µM, first compound 1 µM) was 26.4%, the viability, T/C (second compound 10 µM, first compound 3.16 µM) was 27.7% and the viability, T/C (second compound 10 µM, first compound 10 µM) was 17.4%.
